Data from article PMC12812009, “Optimization of 4‐Amino‐2‐Pyridone Inhibitors of Proprotein Convertase Subtilisin/Kexin Type 9: Integrating Structure–Activity and Structure–Metabolism Relationships” (Chemmedchem, 2025).
Where two headings read alike, the source gives them in different places.

Columns and labels:
[1] = MTT cell viability assay in HepG2 cell cultures; format: cell-based, human; conditions: human, HepG2 cells, MTT
Description: The approach we set‐up to test the new PCSK9i was based on functional assay, which evaluated at the same time compounds cytotoxicity, and their effect on the secreted PCSK9 on the same cell line. First, cell viability was evaluated in HepG2 cell cultures using the MTT assay (CC50 values are reported in Table 1 and Figure 5 ) after 24 h of incubation in starving conditions (0.4% fetal bovine serum (FBS)). The low FBS concentration, and thus low extracellular lipoproteins, stimulates the sterol responsive element binding protein (SREBP) pathway, inducing the expression of LDLR, PCSK9, HMG‐CoA reductase,^[ [28] ^] thus increasing the uptake of exogenous cholesterol and enhancing the synthesis of endogenous cholesterol. This first step allowed us to calculate the CC50 and identify the noncytotoxic concentrations (viability higher than 90%; Table 1), then tested for PCSK9 inhibitory activity.
Cell viability was assessed using the MTT assay. Cells were seeded in 96‐well plates (2.5 × 10^4 cells/well) in MEM supplemented with 10% v/v FBS and incubated for 24 h. The cells were then treated with the synthesized compounds dissolved in DMSO at increasing concentrations (from 0.5 to 50 µM) in MEM supplemented with 0.4% v/v FBS for 24 h. Simvastatin [20 and 40 µM] and BBR [10 µM] (both from Merck, St. Louis, Missouri, USA) were used as internal controls as PCSK9 inducer and inhibitor, respectively.^[ [21] ^, [34] ^, [35] ^] The cells were then incubated for 2 h with a solution of MTT [1 mg mL^–1] in MEM supplemented with 0.4% v/v FBS, away from light sources. The supernatant was then collected and 200 µL of DMSO was added to each well to solubilize the newly formed formazan. Finally, an aliquot of 100 µL was taken to measure the absorbance at a wavelength of 570 nm using an absorbance microplate reader (Spark Tecan, Switzerland). Every experimental condition was run in duplicate and the average cell viability and standard deviation was calculated. Cell viability was expressed as the percentage of treated cells compared to untreated (basal) cells. CC50 values for each compound were calculated by interpolating the percentage of cell viability through nonlinear regression analysis of the log (inhibition) versus response using GraphPad Prism software version 8.0 (GraphPad Software Inc., La Jolla, CA).

[2] = tested on: PCSK9 mRNA; assay: PCSK9 mRNA expression in HepG2 cells by RTqPCR; format: cell-based, human; conditions: 24 h incubation, increasing concentrations
Description: To further investigate the mechanism of action of these compounds, we evaluated the PCSK9 mRNA levels after 24 h incubation with increasing concentrations of 5c, 6b, and 7.
Total RNA was extracted using the iScript RT‐qPCR Sample Prep reagent (Bio‐Rad), according to the manufacturer's instructions. QuantiNova SYBR Green RT‐PCR Kit (QIAGEN, Hilden, Germany) was used for qPCR, along with specific primers for 18S (FWD 5′‐[…]‐3′, REV 5′‐[…]‐3′) PCSK9 (FWD 5′‐CCTGCGCGTGCTCAACT‐3′, REV 5′‐[…]‐3′). The analyses were performed with the CFX96 Touch Real‐Time PCR Detection System (Bio‐Rad) with cycling conditions of 45 °C for 10 min, 95 °C for 5 min, and a repetition of 40 cycles at 95 °C for 5 s followed by 30 s at 60 °C. The data were expressed as Ct values and used for relative quantification of targets with ΔΔCt calculations. The ΔΔCt values were determined by multiplying the ratio value between the efficiency of specific primers and housekeeping 18S. The efficiency was calculated as ((10(‐1/slope))−1) × 100.

[3] = In vitro metabolic stability with mouse liver microsomes; format: in vitro ADME; conditions: for metabolic stability (in words): MLM + NADPH-generating system; for metabolic stability/PCSK9 IC50 ratio (in words): with respect to 5c
Description: All newly synthesized LSF derivatives of 5c were biologically evaluated to determine whether the introduced modifications influenced both metabolic stability and anti‐PCSK9 activity. Microsomal stability assays were conducted to assess the impact of LSF modifications on improving the stability of 5c. In these assays, LSF derivatives were incubated with mouse liver microsomes (MLM) and an NADPH‐generating system for 60 min, followed by HPLC analysis. Control samples included compounds and liver microsomes without the NADPH system, allowing for the assessment of nonspecific binding to microsomes. […] Acylated derivatives 12, 13, and 14 achieved stability levels exceeding 95%, as did the bicyclic derivative 7, which exemplifies a dual‐site functionalization.
MLM (pooled male) were obtained from Xenotech, LLC (Cambridge, Kansas City, USA). Glucose‐6‐phosphate (G6P), oxidized nicotinamide‐adenine‐dinucleotide phosphate (NADP^+), magnesium chloride (MgCl2), and glucose‐6‐phosphate‐dehydrogenase (G6PDH) were supplied by Sigma‐Aldrich (Milan, Italy). Metabolic stability assays were modified from Ferlenghi et al.^[ [33] ^] Briefly, samples were prepared in 100 mM phosphate buffered saline (PBS), pH 7.4, containing 1 mg ml^–1 MLM and a NADPH‐generating system (5 mM MgCl2, 10 mM glucose‐6‐phosphate, 2 mM NADP^+, 1.5 U ml^–1 of glucose‐6‐phosphate dehydrogenase). After incubation (37 °C, 5 min stirring), compounds stock solutions in DMSO were added to a final concentration of 10 µM. The final DMSO percentage in samples was kept at 0.5%. After 60 min, single aliquots of reaction mixture were withdrawn, added of two volumes of acetonitrile, centrifuged (10,000 g, 10 min) and the supernatant was analyzed by HPLC. The unspecific binding to MLM was evaluated by means of control samples in which the compounds were incubated in the absence of a NADPH generating system. The apparatus used for HPLC analysis was a Shimadzu instrument, with a reverse‐phase Nova‐Pak column (Waters) (C18 4 μm 3.9 × 150 mm, Waters). The mobile phase, pumped at a flow rate of 1.2 ml min^–1, consisted of water and acetonitrile in either a 50:50 (v/v) ratio (compounds 5c, 6a, 6b, 6c, 7, 8, 12, 13, 14, 17b) or a 40:60 (v/v) ratio (compounds 11 and 15) or a 30:70 (v/v) ratio (for compounds 17a, 18a, 18b). For compounds 9 and 10, a phosphate buffer (5.98 g L^–1 Na2HPO4, 0.19 g L^–1 KH2PO4, adjusted to pH 7.4 with 85% H3PO4 and supplemented with 1.4 mL L^–1 triethylamine; final pH: 8) and acetonitrile (50:50, v/v) were pumped at a flow rate of 2 mL min^–1. In all cases, column temperature was 35 °C, injection volume was 50 µl, and absorbance was monitored at 254 nm. Serial dilutions for the calibration curves were prepared in the interval 0.5–20 µM in either PBS:CH3CN or H2O:CH3CN mixture (50:50, v/v) for compounds 5c, 6a, 6b, 8, 9, 10, 11, 12, 13, 14, 15, 17a, 17b, 18a, 18b, and in acetonitrile for compounds 6c and 7.

[4] = printed in Figures 5 and 8, HepG2, 24 h, read-out: CC50

Row | metabolic stability, percentage of intact compound recovered relative to control ([3]; MLM 1 mg/ml + NADPH-generating system, 60 min, 10 µM, HPLC) | SMILES | CC50 at 24 h ([1]; 24 h incubation, HepG2, 0.4% FBS, 0.5-50.0 μM, read-out: CC50 (CI 95%)) [µM] | PCSK9 mRNA expression (in words) [2] | metabolic stability (in words) ([3]; 60 min) | metabolic stability/PCSK9 IC50 ratio (in words) [3] | CC50 at 24 h [1, 4] [µM]
1 | – | Cc1cc(NCc2ccc(C(F)(F)F)cc2)c(Br)c(=O)n1Cc1ccc(C(F)(F)F)cc1 [Compound 6b, 3‐Bromo‐6‐Methyl‐1‐(4‐(Trifluoromethyl)Benzyl)‐4‐((4‐(Trifluoromethyl)Benzyl)Amino)pyridin‐2(1H)‐One] | 27 | strongly suppressed the PCSK9 mRNA expression | greater stability compared to chlorinated 6a | higher metabolic stability/PCSK9 IC50 ratio | –
2 | – | Cc1cc(NCc2ccc(C(F)(F)F)cc2)cc(=O)n1Cc1ccc(C(F)(F)F)cc1 [Compound 5c] | – | strongly suppressed the PCSK9 mRNA expression | suboptimal metabolic stability | – | 32.4
3 | exceeding 95% | Cc1cc2c(sc(=N)n2Cc2ccc(C(F)(F)F)cc2)c(=O)n1Cc1ccc(C(F)(F)F)cc1 [Compound 7, 2‐Imino‐6‐Methyl‐1,5‐Bis(4‐(Trifluoromethyl)benzyl)‐1,2‐Dihydrothiazolo[5,4‐c]pyridin‐4(5H)‐One] | – | strongly suppressed the PCSK9 mRNA expression | – | higher metabolic stability/PCSK9 IC50 ratio | > 50
